Source: the supplement of paper PMC10307832

Columns and labels:
Experiment in all cases: relative viability (nuclei count vs DMSO), 5 days (fraction); higher = more cells survive
TGX 221 + Olaparib = compound: CC1=CN2C(=O)C=C(N=C2C(=C1)C(C)NC3=CC=CC=C3)N4CCOCC4 [TGX 221] + O=C(c1cc(Cc2n[nH]c(=O)c3ccccc23)ccc1F)N1CCN(C(=O)C2CC2)CC1 [Olaparib] (partner 8 µM)
Procedure, shortened: (§1)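 Each reported value is a median over duplicate plates. It expresses relative viability: treated-well nuclei count divided by vehicle-well nuclei count. Lung cancer cell lines in 1536-well plates were dosed by pin tool a day after seeding, alone with one drug or with a fixed anchor-drug dose plus five library-drug doses (not always all listed) in √10 steps, and nuclei were counted after 5 days.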

TGX 221 + OSI-027 = compound: CC1=CN2C(=O)C=C(N=C2C(=C1)C(C)NC3=CC=CC=C3)N4CCOCC4 [TGX 221] + COc1cccc2cc(-c3nc([C@H]4CC[C@H](C(=O)O)CC4)n4ncnc(N)c34)[nH]c12 [OSI-027] (partner 0.5 µM)
Procedure, shortened: as §1

Ricolinostat + Olaparib = compound: O=C(CCCCCCNC(=O)c1cnc(N(c2ccccc2)c2ccccc2)nc1)NO [Ricolinostat] + O=C(c1cc(Cc2n[nH]c(=O)c3ccccc23)ccc1F)N1CCN(C(=O)C2CC2)CC1 [Olaparib] (partner 8 µM)
Procedure, shortened: as §1

[1] = compound: O=C(CCCCCCNC(=O)c1cnc(N(c2ccccc2)c2ccccc2)nc1)NO [Ricolinostat] + CS(=O)(=O)N1CCN(Cc2cc3nc(-c4cccc5[nH]ncc45)nc(N4CCOCC4)c3s2)CC1 [Pictilisib] (partner 1 µM)
Procedure, shortened: as §1

Cell Line	relative viability (TGX 221 + Olaparib; first compound 0.08 µM)	relative viability (TGX 221 + Olaparib; first compound 0.253 µM)	relative viability (TGX 221 + Olaparib; first compound 0.8 µM)	relative viability (TGX 221 + Olaparib; first compound 2.53 µM)	relative viability (TGX 221 + Olaparib; first compound 8 µM)	relative viability (TGX 221 + OSI-027; first compound 0.08 µM)	relative viability (TGX 221 + OSI-027; first compound 0.253 µM)	relative viability (TGX 221 + OSI-027; first compound 0.8 µM)	relative viability (TGX 221 + OSI-027; first compound 2.53 µM)	relative viability (TGX 221 + OSI-027; first compound 8 µM)	relative viability (Ricolinostat + Olaparib; first compound 0.253 µM)	relative viability (Ricolinostat + Olaparib; first compound 0.8 µM)	relative viability (Ricolinostat + Olaparib; first compound 2.53 µM)	relative viability ([1]; first compound 0.253 µM)	relative viability ([1]; first compound 0.8 µM)	relative viability ([1]; first compound 2.53 µM)	relative viability (Ricolinostat + Olaparib; first compound 0.08 µM)	relative viability ([1]; first compound 0.08 µM)
NCI-H520	0.329	0.256	0.262	0.22	0.247	0.212	0.165	0.227	0.188	0.195	0.305	0.343	0.271	0.218	0.272	0.23	–	–
NCI-H2085	0.802	0.75	0.684	0.536	0.439	0.714	0.645	0.659	0.323	0.462	0.734	0.764	0.791	0.447	0.431	0.416	–	–
LCLC-103H	0.747	0.738	0.793	0.764	0.717	0.425	0.453	0.438	0.394	0.411	0.655	0.771	0.743	0.47	0.583	0.547	0.675	0.456
PC-14	0.249	0.265	0.262	0.222	0.252	0.707	0.791	0.908	1.05	0.654	0.257	0.267	0.199	0.681	0.653	0.321	0.265	0.536
HCC-366	0.331	0.303	0.407	0.344	0.357	0.865	0.832	0.922	0.567	0.755	0.309	0.277	0.212	0.17	0.151	0.198	0.272	0.133
NCI-H2126	0.927	0.885	0.886	0.813	0.871	0.703	0.733	0.619	0.539	0.702	0.889	0.93	0.851	0.497	0.459	0.383	0.789	0.393
NCI-H2023	0.539	0.411	0.549	0.46	0.405	0.324	0.328	0.441	0.322	0.275	0.447	0.407	0.239	0.277	0.183	0.185	0.485	0.162
SK-LU-1	0.453	0.47	0.442	0.42	0.432	0.31	0.331	0.288	0.273	0.298	0.478	0.362	0.382	0.469	0.423	0.485	0.371	0.478
NCI-H2347	0.592	0.563	0.521	0.528	0.457	0.463	0.321	0.376	0.29	0.296	0.604	0.612	0.586	0.628	0.884	0.644	0.51	0.451
HCC-15	0.641	0.728	0.756	0.704	0.719	0.672	0.713	0.754	0.592	0.681	0.57	0.64	0.59	0.79	0.779	0.617	0.669	0.647
HCC-44	1	1.04	1.05	1.08	1	–	0.417	0.51	0.543	0.41	0.922	1.06	1	0.673	0.635	0.424	1.04	0.551
NCI-H1355	0.714	0.669	0.718	0.668	0.619	0.377	0.427	0.385	0.314	0.331	0.723	0.707	0.688	0.418	0.419	0.316	0.647	–
NCI-H2405	0.803	0.886	0.858	0.801	0.75	0.609	0.627	0.664	0.658	0.589	0.858	0.814	0.937	0.494	0.412	0.277	0.705	0.389
EKVX	0.75	0.758	0.792	0.691	0.709	0.697	0.708	0.698	0.687	0.672	0.897	0.853	0.836	0.444	0.456	0.378	0.638	–
NCI-H1993	0.945	1.02	1.08	0.936	0.938	0.504	0.575	0.579	0.559	0.533	0.875	1.02	0.892	0.889	0.882	0.239	0.883	0.645
HOP-62	0.408	0.435	0.536	0.707	0.585	0.787	0.812	0.788	0.807	0.835	0.408	0.31	0.394	0.749	0.624	0.33	0.516	0.624
SK-MES-1	0.65	0.691	0.744	0.554	0.465	0.552	0.53	0.592	0.532	0.473	0.712	0.691	0.681	0.34	0.304	0.293	0.713	0.277
ABC-1	0.8	0.86	0.908	0.781	0.876	0.518	0.505	0.593	0.432	0.406	1.05	1.08	1.01	0.731	0.606	0.446	0.781	0.541
